From patent publication EP0193283A1, “Thiazoloquinoline derivatives, process for their preparation and compositions containing them” (BEECHAM GROUP PLC, priority 1985, dated 1986)
In brackets after ≈: the same amount, converted by molar mass.

Columns and labels:
Format in all cases: cell-based
M. bovis NCTC 10131 = assay: microbe, parasite or virus in culture; conditions: NCTC10131
[1] = tested on: M. pneumoniae x vs 9 strains; assay: In vitro antimycoplasmal MIC; conditions: Mycoplasmoides pneumoniae, XVS9STRAINS, Friis' agarose medium or SP4 medium with 0.65% agarose
M. synoviae ATCC 25204 = assay: In vitro antimycoplasmal MIC; conditions: Mycoplasmopsis synoviae, ATCC25204, Friis' agarose medium or SP4 medium with 0.65% agarose
S.aureus M12 = assay: Antibacterial MIC on agar; conditions: Staphylococcus aureus
M. hyorhinis ATCC 23234 = assay: In vitro antimycoplasmal MIC; conditions: Mesomycoplasma hyorhinis, ATCC23234, Friis' agarose medium or SP4 medium with 0.65% agarose
M. gallisepticum S6 = assay: In vitro antimycoplasmal MIC; conditions: Mycoplasmoides gallisepticum, Friis' agarose medium or SP4 medium with 0.65% agarose
M. meleagridis 17529 = assay: In vitro antimycoplasmal MIC; conditions: Friis' agarose medium or SP4 medium with 0.65% agarose
S.agalactiae SPAI = assay: Antibacterial MIC on agar; conditions: Streptococcus agalactiae
[2] = tested on: M. hyopneumoniae x 5 strains; assay: In vitro antimycoplasmal MIC; conditions: Mesomycoplasma hyopneumoniae, X5STRAINS, Friis' agarose medium or SP4 medium with 0.65% agarose
M. iowae B11 = assay: In vitro antimycoplasmal MIC; conditions: Friis' agarose medium or SP4 medium with 0.65% agarose
M. dispar NCTC 10125 = assay: In vitro antimycoplasmal MIC; conditions: Friis' agarose medium or SP4 medium with 0.65% agarose
S.dysgalactiae FRO 7A = assay: Antibacterial MIC on agar; conditions: Streptococcus dysgalactiae, FRO7A
[3] = tested on: M. hyosynoviae ATCC 25591; assay: In vitro antimycoplasmal MIC; conditions: Friis' agarose medium or SP4 medium with 0.65% agarose

## CCNCC1CCN(c2cc3c(cc2F)c(=O)c(C(=O)O)c2scc(C)n23)C1 (stereo not shown) [Example 1, 8-[3-[(Ethylamino)methl]-1-pyrrolidinyl]-7-fluoro-1-methyl-5-oxo-5H-thiazolo[3,2-a]-quinoline-4-carboxylic acid]
M. bovis NCTC 10131
  MIC: 0.1 ng/mL (≈ 0.248 nM)
[1]
  MIC: 0.13 ng/mL (≈ 0.322 nM)
M. synoviae ATCC 25204
  MIC: 0.1 ng/mL (≈ 0.248 nM)
S.aureus M12
  MIC: 120 ng/mL (≈ 297 nM)
M. hyorhinis ATCC 23234
  MIC: 0.05 ng/mL (≈ 0.124 nM)
M. gallisepticum S6
  MIC: 0.025 ng/mL (≈ 0.062 nM)
M. meleagridis 17529
  MIC: 0.025 ng/mL (≈ 0.062 nM)
S.agalactiae SPAI
  MIC: 1000 ng/mL (≈ 2480 nM)
[2]
  MIC: 0.001 ng/mL (≈ 0.00248 nM)
M. iowae B11
  MIC: 0.025 ng/mL (≈ 0.062 nM)
M. dispar NCTC 10125
  MIC: 0.025 ng/mL (≈ 0.062 nM)
S.dysgalactiae FRO 7A
  MIC: 500 ng/mL (≈ 1240 nM)
[3]
  MIC: 0.05 ng/mL (≈ 0.124 nM)
